Measurements as given in patent US20170049726A1, “METFORMIN IN TREATMENT OF NEUROBLASTOMA” (UNIVERSITY OF SOUTH CAROLINA, priority 2015, published 2017).

Columns and labels:
sox2 = test: Western blot of stem cell marker protein sox2 in metformin-treated SK-N-BE(2) cells; type: cell-based, human; conditions: metformin 1, 10 and 20 mM, 2 days, vs untreated control
Experimental: (§1) SH-SY5Y, IMR-32, SK-N-BE(2) and SKNF-1 human neuroblastoma cells were purchased from The American Type Culture Collection (ATCC; Manassas, Va.), and NGP cells were kind gift from Garrett M. Brodeur (The Children's Hospital of Philadelphia, Philadelphia, Pa.). Cells were maintained as monolayer in Dulbecco's Modified Eagle's Medium (DMEM) containing 10% fetal bovine serum (FBS; Atlanta Biologicals, Lawrenceville, Ga.) and 1% antibiotic-antimycotic solution (100 unit/ml penicillin, […]; Gibco, Grand Island, N.Y.) at 37° C. in a humidified incubator with 5% CO2. For all the experiments, cell culture passages from 4-12 were used.
(§2) Cells, either from monolayer or from spheroids, were dissociated by trypsinization, washed with 1× phosphate buffered saline (PBS), pH 7.5, and lysed with 1× cell lysis buffer (Cell Signaling Technology, Danvers, Mass.) containing phenylmethylsulfonyl fluoride (PMSF) and protease inhibitors (aprotinin and leupeptin) for 30 min on ice. […] Protein concentration was determined by bicinchoninic acid method using BCA protein assay kit (Pierce/Thermo-scientific, Waltham, Mass.). Equal amount of proteins were diluted with 5×Laemmli samples loading buffer, boiled for five minutes, separated on sodium dodecyl sulfate (SDS)-polyacrylamide gel, and analyzed by Western blotting. […]

SK-N-BE(2) tumors = test: Immunohistochemistry of cleaved caspase-3 and sox2 in SK-N-BE(2) tumor sections; type: in vivo, athymic nude mice (nu/nu); conditions: tumors from mice treated with metformin 100 mg/kg daily oral
Experimental: For tumor tissue, paraformaldehyde-fixed paraffin-embedded tumor sections (5 μm thick) were deparaffinized in xylene, rehydrated with sequential immersion in graded ethanol (100%, 95%, 85%, 70% and 50%). Antigen unmasking was carried out by boiling slides in 10 mM sodium citrate buffer, pH 6.0, at 95° C. for 30 min. After cooling down at room temperature, sections were incubated with 0.1M glycine+0.3% Triton X-100/PBS for 30 min, and were blocked with 10% IgG-free BSA in 1×PBS for overnight at 4° C. Sections were incubated with primary antibodies diluted in 5% IgG-free BSA+0.3% Triton X-100/PBS (1:100 dilution) for overnight at 4° C. Primary antibodies were detected as described in previous paragraph. Primary antibodies used were: sox2, oct4 and nanog, and active form of caspase-3.
To determine if metformin inhibition of tumor growth resulted from apoptotic cell death in tumor stem cells, immunohistochemistry was performed by staining paraffin-embedded tumor sections with antibodies specific for active cleaved form of caspase-3 (an indicator of apoptosis) and stem cell specific marker sox2.

nanog = test: Western blot of stem cell marker protein nanog in metformin-treated SK-N-BE(2) cells; type: cell-based, human; conditions: metformin 1, 10 and 20 mM, 2 days, vs untreated control
Experimental: as §1, §2

[1] = system: tumors generated from SK-N-BE(2) spheroids; test: In vivo xenograft of tumors generated from SK-N-BE(2) spheroids; parameters: species or system athymic nude mice (nu/nu); conditions: 100 mg/kg daily by oral gavage, 21 days of treatment, nude mice
Experimental: SK-N-BE(2) neuroblastoma spheroids (15-day-old) were dissociated by trypsinization, washed with stem cell specific medium and counted. 1×10^5 cells were mixed (1:1 volume) with EGF-reduced matrigel (BD Bioscience, San Jose, Calif.) to make total volume of 0.1 ml. The cell mixture (0.1 ml) was injected subcutaneously (s.c.) into flanks of 6-week-old female nude athymic mice (nu/nu mice; Charles River Laboratories, Wilmington, Mass.). The animals were housed at 25° C. with a 12-h light/12-h dark cycle in laminar flow cabinets under specific pathogen-free conditions and given sterile water and food ad libitum. Engrafted mice were inspected for tumor appearance, and tumor growth was measured on every fourth day using a caliper. Tumor volume was calculated using the ellipsoid formula (length×width×height×0.5). […]
To assess whether metformin has inhibitory effects on the tumorigenicity of neuroblastoma stem cells, tumors were generated from neuroblastoma stem cells by inoculating tumor cells from SK-N-BE(2) spheroids (15-day-old) subcutaneously in to the flank region of athymic nude mice. […] The size of tumors was measured on every fourth day, and after 21 days of metformin treatment tumors were harvested and sizes were measured.

oct4 = test: Western blot of stem cell marker protein oct4 in metformin-treated SK-N-BE(2) cells; type: cell-based, human; conditions: metformin 1, 10 and 20 mM, 2 days, vs untreated control
Experimental: as §1, §2

SK-N-BE(2) spheroids = test: Immunofluorescence of cleaved caspase-3 in SK-N-BE(2) spheroids; type: cell-based, human; conditions: metformin-treated SK-N-BE(2) spheroids
Experimental: (§3) Neuroblastoma cells grown in Lab-TekII chamber slides (Fisher Scientific, Pittsburgh, Pa.) were treated with metformin in complete culture medium. After treatments, cells were washed with 1×PBS, fixed with 4% paraformaldehyde/PBS for 20 min, and incubated in 1×PBS buffer containing 0.1M glycine and 0.3% Triton X-100 for 30 min at room temperature. Cells were washed with 1×PBS for 4 times (10 min each) and blocked with 5% immunoglobulin (IgG)-free bovine serum albumin (BSA; Jackson ImmunoResearch Laboratories, West Grove, Pa.) in 1×PBS for overnight at 4° C. Cells were incubated with antibodies raised against sox2, oct4 and nanog, and active form of caspase-3 diluted in 2.5% BSA+0.3% Triton X-100 in PBS for overnight at 4° C. Primary antibodies were detected with secondary antibodies conjugated with AlexaFluor-488 or AlexaFluor-568 for 2 h at room temperature. After washing with 1×PBS, cells were mounted with antifade Vectashield™ mounting media (Vector Laboratories, Burlingame, Calif.), and signals were visualized under Nikon™-E600 fluorescence microscope. Nuclei were stained with 4′, 6-diamidino-2-phenylindole (DAPI; Sigma).

SK-N-BE(2) cells [2] = test: Primary spheroid formation assay; type: cell-based, human; conditions: 20 days
Experimental: (§4) For spheroid formation, adherent cells were trypsin digested (0.25% Trypsin-EDTA) for 3-4 min at 37° C., washed and suspended in the serum-free stem cell specific medium [DMEM/F-12 medium (Lonza, Switzerland) supplemented with 1% N-2 supplement, 2% B-27 without vitamin A, 20 ng/ml human recombinant epidermal growth factor (hrEGF), 20 ng/ml human recombinant basic fibroblast growth factor (bFGF) and 1% antibiotic-antimycotic solution; all from Gibco]. The dispersed single cells were plated at density of 1,000 cells/well in Costar ultra-low attachment six-well plates (Corning Inc., Corning, N.Y.), and treated with indicated concentrations of metformin. The stock solution of metformin (MP Biomedicals, Solon, Ohio) was freshly prepared in sterile triple distilled water before each experiment. Cells treated with equal volume of vehicle were used as control. Cell culture medium was changed on every fourth day. […]
(§5) To test the effect of metformin in neuroblastoma spheroid formation, SK-N-BE(2) cells were grown in stem cell specific medium on ultra-low attachment plates and the growth of spheroid formation was monitored For spheroid formation assays, SK-N-BE(2) cells were seeded at density of 1000 cells per well in six-well plate in stem cell-specific medium with or without metformin (0.1, 0.5, 1, 10 and 20 mM). After 20 days, pictures of formed spheroids were taken and the number of spheroids equal to or larger than 100 μm in size (termed primary spheroids) was counted (FIG. 7 at A and B). […] Secondary spheroid formation (as an indicator of self-renewal potential of neuroblastoma spheres) was analyzed. After 20 days, the number of formed secondary spheroids (equal or larger than 100 μm in size) was counted and plotted (FIG. 7 at C).

SK-N-BE(2) cells [3] = test: Secondary spheroid formation assay (self-renewal); type: cell-based, human; conditions: metformin at lower concentration (0.1 mM), 20 days
Experimental: as §4, with “metformin.” for “metformin. The stock solution of metformin (MP Biomedicals, Solon, Ohio) was freshly prepared in sterile triple distilled water before each experiment. Cells treated with equal volume of vehicle were used as control. Cell culture medium was changed on every fourth day.”
as §5, with “After 20 days, the number of formed secondary spheroids (equal or larger than 100 μm in size) was counted and plotted (FIG. 7 at C).” left out

SK-N-BE(2) cells [4] = test: Immunofluorescence staining of cleaved caspase-3 and sox2 in SK-N-BE(2) monolayer cells; type: cell-based, human; conditions: metformin 10 mM, 2 days
Experimental: as §3, with “Sigma). […]” for “Sigma).”

`CN(C)C(=N)NC(=N)N` [metformin, N′,N′-dimethylbiguanide] was tested, and the “level of sox2 protein” value (sox2) was “dose dependently decreased”, the “cytoplasmic cleaved caspase-3 signals in tumor tissues” value (SK-N-BE(2) tumors) was “present” and the “level of nanog protein” value (nanog) was “dose dependently decreased”. For the same compound, the “size of the subcutaneous tumor vs control” value [1] was “less”, the oct4 protein expression (oct4) was “No change” and the “cleaved caspase-3 signal in sox2-expressing cells of spheroids” value (SK-N-BE(2) spheroids) was “induced apoptotic death in spheroids”. For the same compound, the “number of primary spheroids vs control” value (SK-N-BE(2) cells [2]; metformin 0.1 mM) was “similar”, the primary spheroid formation (SK-N-BE(2) cells [2]; metformin 0.5 mM and higher concentrations) was “reduced primary spheroid formation significantly” and the “formation of primary spheroids (equal to or larger than 100 μm)” value (SK-N-BE(2) cells [2]; metformin 0.1, 0.5, 1, 10 and 20 mM, overall vs control) was “significantly decreased the formation of primary neuroblastoma spheroids in a dose dependent manner”. The secondary spheroid formation (SK-N-BE(2) cells [3]) was “significantly inhibited secondary spheroid formation” and the “cleaved caspase-3 signals (apoptotic cell death)” value (SK-N-BE(2) cells [4]) was “present in both sox2-expressing and sox2-nonexpressing cells”.
